Measured values published in the NIST ThermoML archive (doi:10.1007/s10765-009-0579-1).

Experiment: xn = mol fraction of the nth substance listed
Details: Gas; for viscosity: Oscillating disk viscometry; for mass density: Pycnometric method

CC(F)(F)Cl [1-chloro-1,1-difluoroethane] + FC(F)Cl
Details	mass density [kg/m3]	viscosity [mPa·s]
298.15 K, 101.5 kPa, x2 = 0.5169	3.896	0.01164
298.15 K, 101.7 kPa, x2 = 0.7502	3.754	0.01219
298.15 K, 101.8 kPa, x2 = 0.2615	4.07	0.01109
298.15 K, 177.1 kPa, x2 = 0.5169	6.906	0.01163
298.15 K, 198 kPa, x2 = 0.7502	7.44	0.01217
298.15 K, 205.6 kPa, x2 = 0.2615	8.45	0.01104
298.15 K, 248.7 kPa, x2 = 0.5169	9.867	0.0116
298.15 K, 291.6 kPa, x2 = 0.7502	11.16	0.01212
298.15 K, 299.2 kPa, x2 = 0.2615	12.59	0.01102
298.15 K, 323.9 kPa, x2 = 0.5169	13.12	0.01159
298.15 K, 357.3 kPa, x2 = 0.2615	15.25	0.01103
298.15 K, 384.8 kPa, x2 = 0.7502	15.02	0.01212
298.15 K, 391.5 kPa, x2 = 0.5169	16.21	0.01158
298.15 K, 406.4 kPa, x2 = 0.2615	17.6	0.011
298.15 K, 453.1 kPa, x2 = 0.5169	19.06	0.01157
298.15 K, 477.3 kPa, x2 = 0.7502	18.96	0.0121
298.15 K, 571.3 kPa, x2 = 0.7502	23.23	0.01209
323.15 K, 101.8 kPa, x2 = 0.2615	3.732	0.01206
323.15 K, 102.2 kPa, x2 = 0.7502	3.468	0.0132
323.15 K, 102.4 kPa, x2 = 0.2615	3.755	0.01207
323.15 K, 103 kPa, x2 = 0.5169	3.663	0.01262
323.15 K, 190 kPa, x2 = 0.5169	6.762	0.01261
323.15 K, 199 kPa, x2 = 0.7502	6.842	0.0132
323.15 K, 200 kPa, x2 = 0.2615	7.459	0.01203
323.15 K, 276.2 kPa, x2 = 0.5169	10.03	0.01259
323.15 K, 297.3 kPa, x2 = 0.7502	10.36	0.01317
323.15 K, 299.4 kPa, x2 = 0.2615	11.38	0.01201
323.15 K, 373.4 kPa, x2 = 0.5169	13.8	0.01259
323.15 K, 396.6 kPa, x2 = 0.2615	15.36	0.012
323.15 K, 398.7 kPa, x2 = 0.7502	14.09	0.01318
323.15 K, 473.2 kPa, x2 = 0.5169	17.99	0.01258
323.15 K, 492.9 kPa, x2 = 0.2615	19.48	0.01199
323.15 K, 510 kPa, x2 = 0.7502	18.34	0.0132
323.15 K, 575.5 kPa, x2 = 0.5169	22.07	0.01257
323.15 K, 593.3 kPa, x2 = 0.2615	23.99	0.01199
323.15 K, 618.1 kPa, x2 = 0.7502	22.66	0.0132
323.15 K, 670.6 kPa, x2 = 0.5169	26.3	0.01258
323.15 K, 687 kPa, x2 = 0.2615	28.43	0.01202
323.15 K, 724.7 kPa, x2 = 0.7502	26.96	0.01318
323.15 K, 771 kPa, x2 = 0.5169	30.74	0.01259
323.15 K, 793.7 kPa, x2 = 0.2615	33.76	0.01211
323.15 K, 828.4 kPa, x2 = 0.7502	31.41	0.0132
323.15 K, 867.1 kPa, x2 = 0.5169	35.23	0.0126
323.15 K, 937.9 kPa, x2 = 0.7502	36.25	0.01322
348.15 K, 101.4 kPa, x2 = 0.5169	3.305	0.01354
348.15 K, 101.6 kPa, x2 = 0.7502	3.189	0.01427
348.15 K, 102.1 kPa, x2 = 0.2615	3.463	0.01295
348.15 K, 198.6 kPa, x2 = 0.5169	6.548	0.01355
348.15 K, 199 kPa, x2 = 0.2615	6.847	0.01294
348.15 K, 200.7 kPa, x2 = 0.7502	6.368	0.01423
348.15 K, 296.9 kPa, x2 = 0.2615	10.36	0.01293
348.15 K, 344.3 kPa, x2 = 0.7502	11.09	0.01422
348.15 K, 345.4 kPa, x2 = 0.5169	11.61	0.01355
348.15 K, 446.2 kPa, x2 = 0.2615	15.92	0.01294
348.15 K, 490.8 kPa, x2 = 0.5169	16.98	0.01355
348.15 K, 490.8 kPa, x2 = 0.7502	16.07	0.01424
348.15 K, 590.8 kPa, x2 = 0.2615	21.56	0.01297
348.15 K, 637.2 kPa, x2 = 0.5169	22.25	0.01354
348.15 K, 638.2 kPa, x2 = 0.7502	21.43	0.01423
348.15 K, 736.9 kPa, x2 = 0.2615	27.57	0.01297
348.15 K, 781.7 kPa, x2 = 0.5169	27.87	0.01358
348.15 K, 782.5 kPa, x2 = 0.7502	26.5	0.01425
348.15 K, 887.3 kPa, x2 = 0.2615	34.14	0.01301
348.15 K, 925.6 kPa, x2 = 0.7502	31.97	0.01428
348.15 K, 930.2 kPa, x2 = 0.5169	33.93	0.01365
348.15 K, 1036 kPa, x2 = 0.2615	40.96	0.01302
348.15 K, 1077 kPa, x2 = 0.5169	40.31	0.01365
348.15 K, 1090 kPa, x2 = 0.7502	38.36	0.0143
348.15 K, 1182 kPa, x2 = 0.2615	48.22	0.01307
348.15 K, 1240 kPa, x2 = 0.7502	44.53	0.01438
348.15 K, 1262 kPa, x2 = 0.5169	48.67	0.0137
348.15 K, 1334 kPa, x2 = 0.2615	56.48	0.01312
348.15 K, 1392 kPa, x2 = 0.7502	51.21	0.01443
348.15 K, 1408 kPa, x2 = 0.5169	56	0.01377
348.15 K, 1489 kPa, x2 = 0.2615	65.73	0.01325
348.15 K, 1541 kPa, x2 = 0.7502	58.1	0.0145
348.15 K, 1552 kPa, x2 = 0.5169	63.84	0.01386
348.15 K, 1683 kPa, x2 = 0.7502	64.7	0.01457
373.15 K, 101.5 kPa, x2 = 0.5169	3.079	0.01451
373.15 K, 102.1 kPa, x2 = 0.7502	2.984	0.01518
373.15 K, 102.2 kPa, x2 = 0.2615	3.224	0.01377
373.15 K, 245.8 kPa, x2 = 0.7502	7.266	0.01517
373.15 K, 294.3 kPa, x2 = 0.5169	9.101	0.01449
373.15 K, 298.2 kPa, x2 = 0.2615	9.612	0.0138
373.15 K, 390.1 kPa, x2 = 0.7502	11.68	0.0152
373.15 K, 490 kPa, x2 = 0.5169	15.46	0.01452
373.15 K, 493.6 kPa, x2 = 0.2615	16.27	0.01381
373.15 K, 583.4 kPa, x2 = 0.7502	17.74	0.01521
373.15 K, 686.2 kPa, x2 = 0.5169	22.09	0.01454
373.15 K, 695.2 kPa, x2 = 0.2615	23.4	0.01381
373.15 K, 782.8 kPa, x2 = 0.7502	24.22	0.01526
373.15 K, 876.7 kPa, x2 = 0.2615	30.25	0.01387
373.15 K, 879 kPa, x2 = 0.5169	28.79	0.01458
373.15 K, 889.8 kPa, x2 = 0.2615	30.77	0.01388
373.15 K, 978.5 kPa, x2 = 0.7502	30.82	0.0153
373.15 K, 1080 kPa, x2 = 0.5169	36.34	0.01464
373.15 K, 1085 kPa, x2 = 0.2615	38.57	0.01394
373.15 K, 1173 kPa, x2 = 0.7502	37.6	0.01535
373.15 K, 1277 kPa, x2 = 0.5169	43.98	0.01476
373.15 K, 1281 kPa, x2 = 0.2615	46.94	0.01403
373.15 K, 1361 kPa, x2 = 0.7502	44.52	0.01542
373.15 K, 1472 kPa, x2 = 0.5169	51.98	0.0148
373.15 K, 1483 kPa, x2 = 0.2615	56.2	0.01413
373.15 K, 1565 kPa, x2 = 0.7502	52.28	0.0155
373.15 K, 1666 kPa, x2 = 0.5169	60.38	0.01486
373.15 K, 1689 kPa, x2 = 0.2615	66.3	0.01426
373.15 K, 1760 kPa, x2 = 0.7502	60.2	0.01559
373.15 K, 1862 kPa, x2 = 0.5169	69.61	0.01502
373.15 K, 1897 kPa, x2 = 0.2615	77.72	0.01439
373.15 K, 1952 kPa, x2 = 0.7502	68.25	0.01568
373.15 K, 2065 kPa, x2 = 0.5169	80.02	0.01509
373.15 K, 2115 kPa, x2 = 0.2615	91.26	0.01461
373.15 K, 2190 kPa, x2 = 0.7502	79.1	0.01586
373.15 K, 2295 kPa, x2 = 0.5169	92.76	0.01537
373.15 K, 2299 kPa, x2 = 0.2615	104.3	0.01486
373.15 K, 2398 kPa, x2 = 0.7502	89.07	0.01602
373.15 K, 2448 kPa, x2 = 0.5169	102	0.01542
373.15 K, 2467 kPa, x2 = 0.2615	117.9	0.01516
